The test system of one experiment is Chilo suppressalis. As to the kind of experiment: Control effect on Chilo suppressalis (potted rice spray test). The experiment is classed as in vivo. The note with it: spray 400 L/ha, g a.i./ha: flubendiamide 30, dichlorvos 393, profenofos 500; for Percentage of control (%): control effect by formula 2; for Percentage of control (%) / Percentage of damaged stems (%): 29 days after treatment; for Number of stems at 29 days after treatment, Damaged stems / Number of stems at 29 days after treatment, Normal stems: rice (Kinmaze) in pots, 60 larvae per pot. The procedure:
Rice plants (variety: Kinmaze) were planted in 2-L pots and grown to a height of about 80 cm (about 82 days after transplantation, 18 to 25 sheaths). The depth of paddy water in each pot was adjusted to 4 cm and then spray treatment to the rice plants was conducted with an agrochemical solution diluted to a predetermined concentration in an amount equivalent to 400 L/ha. After the spray-treated plants were air-dried, each pot was covered with a vinyl chloride cylindrical cover 30 cm in height. At 1 day before the treatment and at 5 and 12 days after the treatment, 20 larvae of the test insect pest Chilo suppressalis were released into each of the covered pots (60 larvae in total per pot). At 29 days after the treatment, in each pot, the number of damaged stems of the rice plants was counted, the percentage of damaged stems was calculated, and from this percentage, the control effect was calculated according to formula 2. In addition, the expected value was calculated according to Colby's equation in the same manner as in Test Example 1.
Control effect (%)=100−(the percentage of damaged stems in a treatment plot/the percentage of damaged stems in a non-treatment plot)×100 <Formula 2>

The next experiment concerns Plutella xylostella. As to the kind of experiment: Control effect on Plutella xylostella (cabbage, greenhouse spray test). The experiment is classed as in vivo. The note with it: spray 800 L/ha, g a.i./ha: flubendiamide 60, dichlorvos 400, profenofos 320; for Number of surviving larvae 2 days after treatment / Number of surviving larvae 6 days after treatment: 3rd-instar larvae on Brassica oleracea var. capitata, three plants per plot; for Control effect (%) 2 days after treatment / Control effect (%) 6 days after treatment: formula 1.

Each structure is given as a SMILES string.

As for `COP(=O)(OC)OC=C(Cl)Cl` [Dichlorvos, 2,2-dichlorovinyl dimethyl phosphate], in the experiment with Chilo suppressalis, the “Percentage of control (%)” value came out at 7.5%; the “Number of stems at 29 days after treatment, Damaged stems” value (“Number of stems … Damaged stems” for short) is 38; the “Number of stems at 29 days after treatment, Normal stems” value (“Number of stems … Normal stems” below) was 7; the “Percentage of damaged stems (%)” value stood at 84.4%. Moreover, in the experiment with Plutella xylostella, the “Number of surviving larvae 2 days after treatment” value (from here on “Number of surviving larvae 2 days”) turned out to be 188, the “Number of surviving larvae 6 days after treatment” value (from here on “Number of surviving larvae 6 days”) turned out to be 212, the “Control effect (%) 2 days after treatment” value (from here on “Control effect (%) 2 days”) was 16% and the “Control effect (%) 6 days after treatment” value (from here on “Control effect (%) 6 days”) came out at 0%.
Take `Cc1cc(C(F)(C(F)(F)F)C(F)(F)F)ccc1NC(=O)c1cccc(I)c1C(=O)NC(C)(C)CS(C)(=O)=O` [Flubendiamide, 3-iodo-W-(2-mesyl-1,1-dimethylethyl)-N-{4-[1,2,2,2-tetrafluoro-1-(trifluoromethyl)ethyl]-o-tolyl}phthalamide]: in the experiment on Chilo suppressalis, the “Percentage of control (%)” value turned out to be 54.0%; the “Number of stems … Damaged stems” value was 21; the “Number of stems … Normal stems” value stood at 29; the “Percentage of damaged stems (%)” value came out at 42.0%. For the same compound, in the experiment on Plutella xylostella, the “Number of surviving larvae 2 days” value came to 307, the “Number of surviving larvae 6 days” value was determined as 56, the “Control effect (%) 2 days” value is on record as 39% and the “Control effect (%) 6 days” value is 88%.
As for `CCCSP(=O)(OCC)Oc1ccc(Br)cc1Cl` (stereo not drawn) [Profenofos, O-4-bromo-2-chlorophenyl O-ethyl S-propyl phosphorothioate], in the experiment with Chilo suppressalis, the “Percentage of control (%)” value was 27.7%; the “Number of stems … Damaged stems” value worked out at 35; the “Number of stems … Normal stems” value is 18; the “Percentage of damaged stems (%)” value came out at 66.0%. In addition, in the experiment on Plutella xylostella, the “Number of surviving larvae 2 days” value is reported as 121, the “Number of surviving larvae 6 days” value worked out at 44, the “Control effect (%) 2 days” value came to 48% and the “Control effect (%) 6 days” value amounted to 80%.

Source of the values: patent US20140256687A1, “Agricultural and Horticultural Insecticide Composition and Method for Using the Same” (priority 2011, published 2014).
